Compound in assay [1]: Cc1ccc(NC(=O)c2ccc(CN3CCN(C)CC3)cc2)cc1Nc1nccc(-c2cccnc2)n1 [IMATINIB]
Put plainly: surviving fraction relative to DMSO-only wells; higher = less growth inhibition. Conditions: exposure time: 5 days. The method in brief:
(§1)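 Luminescence normalised to the median of DMSO-only wells defines surviving fraction, with viability read by CellTiter-Glo. Signal was recorded after 10 minutes at room temperature, once log-phase tumour cell lines seeded at 250–500 cells per well in 384-well plates had spent 24 hours settling and then five days under continuous exposure to inhibitors at 0.5, 1, 5, 10, 50, 100, 500 and 1000 nM.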

Compound in assay [2]: Cn1ncnc1[C@H]1c2n[nH]c(=O)c3cc(F)cc(c23)N[C@@H]1c1ccc(F)cc1 [BMN-673]
The description is as above. As to conditions: exposure time: 5 days. The method in brief:
as §1

± gives the standard deviation of the averaged measurements.

Experimental findings from the supplement of paper PMC6045584 are described below.

On to HCC38 BREAST, for which the surviving fraction in assay [1] (0.5 nM) came out at 1.32 ± 0.15; in assay [1] (1 nM) it was 1.13 ± 0.13; in assay [1] (5 nM), 1.39 ± 0.13; in assay [1] (10 nM) it was 1.3 ± 0.27; in assay [1] (50 nM), 1.31 ± 0.15; in assay [1] (100 nM) it was 1.46 ± 0.21. For the same test system, the surviving fraction in assay [1] (500 nM) was found to be 1.08 ± 0.12; in assay [1] (1000 nM) it was 1.1 ± 0.029; in assay [2] (0.5 nM), 1.06 ± 0.11; in assay [2] (1 nM) it was 0.92 ± 0.2; in assay [2] (5 nM) it was 0.778 ± 0.14; in assay [2] (10 nM), 0.603 ± 0.11. The surviving fraction in assay [2] (50 nM) is 0.585 ± 0.084; in assay [2] (100 nM), 0.43 ± 0.065; in assay [2] (500 nM) it was 0.301 ± 0.046; in assay [2] (1000 nM), 0.253 ± 0.031.

HMLE3 BREAST: the surviving fraction in assay [1] (0.5 nM) stood at 1.08 ± 0.038; in assay [1] (1 nM), 1.14 ± 0.11; in assay [1] (5 nM) it was 1.11 ± 0.08; in assay [1] (10 nM), 1.21 ± 0.062; in assay [1] (50 nM) it was 1.14 ± 0.047; in assay [1] (100 nM), 1.23 ± 0.13. Further, the surviving fraction in assay [1] (500 nM) came to 1.16 ± 0.054; in assay [1] (1000 nM), 1.01 ± 0.089; in assay [2] (0.5 nM), 1.08 ± 0.048; in assay [2] (1 nM), 1.11 ± 0.053; in assay [2] (5 nM), 1 ± 0.2; in assay [2] (10 nM) it was 0.902 ± 0.1. In addition, the surviving fraction stood at 0.644 ± 0.035 in assay [2] (50 nM), 0.604 ± 0.03 in assay [2] (100 nM), 0.339 ± 0.056 in assay [2] (500 nM) and 0.277 ± 0.036 in assay [2] (1000 nM).

For the test system G292 BONE, the surviving fraction turned out to be 1.01 ± 0.037 in assay [1] (0.5 nM); 1.038 ± 0.0097 in assay [1] (1 nM); 1.09 ± 0.024 in assay [1] (5 nM); 1.05 ± 0.024 in assay [1] (10 nM); 1.04 ± 0.028 in assay [1] (100 nM); 0.862 ± 0.029 in assay [1] (500 nM). Further, the surviving fraction in assay [1] (1000 nM) was determined as 0.923 ± 0.065; in assay [2] (0.5 nM), 1.02 ± 0.058; in assay [2] (1 nM), 0.933 ± 0.033; in assay [2] (5 nM), 0.923 ± 0.041; in assay [2] (10 nM), 0.846 ± 0.048; in assay [2] (50 nM), 0.732 ± 0.045. In addition, the surviving fraction in assay [2] (100 nM) worked out at 0.698 ± 0.016; in assay [2] (500 nM), 0.54 ± 0.035; in assay [2] (1000 nM), 0.459 ± 0.015.

With HS578T BREAST, the surviving fraction in assay [1] (0.5 nM) was 1.23 ± 0.27; in assay [1] (1 nM), 1.01 ± 0.11; in assay [1] (5 nM) it was 1.02 ± 0.12; in assay [1] (10 nM), 1.14 ± 0.27; in assay [1] (50 nM), 1.21 ± 0.18; in assay [1] (100 nM), 1.07 ± 0.1. The surviving fraction in assay [1] (500 nM) was found to be 1.1 ± 0.16; in assay [1] (1000 nM), 1.2 ± 0.17; in assay [2] (0.5 nM) it was 1.02 ± 0.035; in assay [2] (1 nM), 1.14 ± 0.14; in assay [2] (5 nM), 1.05 ± 0.091; in assay [2] (10 nM) it was 0.958 ± 0.12. In addition, the surviving fraction in assay [2] (50 nM) was 0.902 ± 0.075; in assay [2] (100 nM), 0.841 ± 0.043; in assay [2] (500 nM) it was 0.669 ± 0.076; in assay [2] (1000 nM) it was 0.61 ± 0.087.

With HS57T BREAST, the surviving fraction in assay [1] (1 nM) is 1 ± 0.062; in assay [1] (5 nM), 1.14 ± 0.016; in assay [1] (10 nM), 1.14 ± 0.024; in assay [1] (50 nM), 1.17 ± 0.069; in assay [1] (100 nM), 1.09 ± 0.056; in assay [1] (500 nM), 1.04 ± 0.034. The surviving fraction in assay [1] (1000 nM) worked out at 1.01 ± 0.093; in assay [2] (0.5 nM) it was 1.04 ± 0.03; in assay [2] (1 nM), 0.984 ± 0.037; in assay [2] (5 nM), 1.04 ± 0.076; in assay [2] (10 nM), 1.03 ± 0.076; in assay [2] (50 nM) it was 0.969 ± 0.084. Further, the surviving fraction in assay [2] (100 nM) is 0.82 ± 0.074; in assay [2] (500 nM) it was 0.619 ± 0.057; in assay [2] (1000 nM), 0.513 ± 0.04.

In the case of HMT3552 BREAST, the surviving fraction in assay [1] (0.5 nM) was 1.01 ± 0.039; in assay [1] (1 nM), 0.967 ± 0.041; in assay [1] (5 nM) it was 1.04 ± 0.032; in assay [1] (10 nM), 0.988 ± 0.057; in assay [1] (50 nM), 1.15 ± 0.061; in assay [1] (100 nM) it was 1.17 ± 0.062. Also, the surviving fraction in assay [1] (500 nM) amounted to 1.18 ± 0.047; in assay [1] (1000 nM), 1.16 ± 0.076; in assay [2] (0.5 nM) it was 1.01 ± 0.064; in assay [2] (1 nM), 0.943 ± 0.036; in assay [2] (5 nM) it was 0.889 ± 0.047; in assay [2] (10 nM), 0.775 ± 0.073. In addition, the surviving fraction in assay [2] (50 nM) is 0.713 ± 0.063; in assay [2] (100 nM) it was 0.574 ± 0.01; in assay [2] (500 nM) it was 0.375 ± 0.026; in assay [2] (1000 nM), 0.264 ± 0.0075.

As to HCC70 BREAST, the surviving fraction in assay [1] (0.5 nM) was 1.116 ± 0.0051; in assay [1] (1 nM), 1.08 ± 0.071; in assay [1] (5 nM) it was 1.04 ± 0.04; in assay [1] (10 nM), 1.1 ± 0.054; in assay [1] (50 nM), 1.17 ± 0.11; in assay [1] (100 nM), 1.15 ± 0.043. Besides, the surviving fraction in assay [1] (1000 nM) is 1.45 ± 0.69; in assay [2] (0.5 nM), 1.05 ± 0.11; in assay [2] (1 nM) it was 1.05 ± 0.11; in assay [2] (5 nM), 1.12 ± 0.069; in assay [2] (10 nM), 0.977 ± 0.065; in assay [2] (50 nM), 0.789 ± 0.054. Further, the values for the surviving fraction in assay [2] (100 nM), in assay [2] (500 nM) and in assay [2] (1000 nM) were 0.657 ± 0.074, 0.411 ± 0.1 and 0.341 ± 0.022, respectively.
